Measured values published in PubChem BioAssay (NCI).
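Compound exposure: 48 hours, 5 concentrations, 96-well plates. Abbreviation: GI50, concentration required for 50% inhibition of growth. TGI: concentration producing complete growth inhibition.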

How the values were obtained:
Test in all cases: NCI-60 cell line screen, 48 h
HOP-92 NSCLC = tested on: HOP-92 NSCLC
HT29 colon = tested on: HT29 colon
M14 melanoma = tested on: M14 melanoma
MOLT-4 leukemia = tested on: MOLT-4 leukemia
OVCAR-8 ovarian = tested on: OVCAR-8 ovarian
SF-295 CNS = tested on: SF-295 CNS
SK-MEL-5 melanoma = tested on: SK-MEL-5 melanoma
SK-OV-3 ovarian = tested on: SK-OV-3 ovarian
U251 CNS = tested on: U251 CNS
UO-31 renal = tested on: UO-31 renal

Structure (SMILES)	GI50 (HOP-92 NSCLC)	TGI (HOP-92 NSCLC)	GI50 (HT29 colon)	TGI (HT29 colon)	GI50 (M14 melanoma)	TGI (M14 melanoma)	GI50 (MOLT-4 leukemia)	TGI (MOLT-4 leukemia)	GI50 (OVCAR-8 ovarian)	TGI (OVCAR-8 ovarian)	GI50 (SF-295 CNS)	TGI (SF-295 CNS)	GI50 (SK-MEL-5 melanoma)	TGI (SK-MEL-5 melanoma)	GI50 (SK-OV-3 ovarian)	TGI (SK-OV-3 ovarian)	GI50 (U251 CNS)	TGI (U251 CNS)	GI50 (UO-31 renal)	TGI (UO-31 renal)
COc1ccc(-c2oc(=O)ccc2-c2cc(OC)c(OC)c(OC)c2)cc1F	5.69 µM	65 µM	4.93 µM	> 100 µM	14.1 µM	> 100 µM	22.4 µM	> 100 µM	24.1 µM	> 100 µM	6.67 µM	89.7 µM	7.46 µM	58.7 µM	80 µM	> 100 µM	14.5 µM	> 100 µM	8.79 µM	35.8 µM
Cc1nc2ccccc2nc1-c1ccc(N=[N+]([O-])c2ccc(-c3nc4ccccc4nc3C)cc2)cc1	–	> 66.1 µM	–	> 100 µM	–	> 100 µM	–	> 100 µM	–	> 100 µM	–	> 100 µM	–	> 100 µM	–	> 82.5 µM	–	> 63.2 µM	–	> 100 µM
O=C(c1ccc(Cl)cc1)c1cnc(Nc2ccccc2Cl)s1	–	49.5 µM	–	> 100 µM	–	> 31.6 µM	–	> 100 µM	–	> 71.1 µM	–	44.3 µM	–	55.2 µM	–	52 µM	–	> 80.9 µM	–	50.1 µM
COc1cccc(/C=N/[N-]C(=O)c2ccncc2)c1[O-].[Cu+2].[OH3+]	> 100 µM	> 100 µM	43.8 µM	> 100 µM	61.3 µM	> 100 µM	35.2 µM	> 100 µM	22 µM	> 100 µM	> 100 µM	> 100 µM	74.3 µM	> 100 µM	15.1 µM	82 µM	20.5 µM	> 100 µM	45.5 µM	> 100 µM
C1CSCCSCCS1	–	> 100 µM	–	> 100 µM	–	> 100 µM	–	> 100 µM	–	> 100 µM	–	> 100 µM	–	> 100 µM	–	> 100 µM	–	> 100 µM	–	> 100 µM
Oc1cc(O)c2c(c1)OC(c1ccc(O)c(O)c1)C(OC1(c3cc(O)c(O)c(O)c3)Oc3cc(O)cc(O)c3C(O)C1O)C2 (stereo not given)	–	84.4 µM	–	41 µM	–	> 65.6 µM	–	52.8 µM	–	> 67.7 µM	–	> 100 µM	–	34 µM	–	> 100 µM	–	46.2 µM	–	50.2 µM
CC1=C2CCCC2=C/C(=N/Nc2ccc([N+](=O)[O-])cc2[N+](=O)[O-])CC1	–	> 100 µM	–	> 100 µM	–	> 100 µM	–	> 100 µM	–	> 100 µM	–	> 100 µM	–	> 100 µM	–	> 100 µM	–	> 100 µM	–	> 100 µM
O=C(CC(O)(C(F)(F)F)C(F)(F)F)c1cc(CC(=O)C(O)(C(F)(F)F)C(F)(F)F)cc(CC(=O)C(O)(C(F)(F)F)C(F)(F)F)c1	–	3.35 µM	–	4.28 µM	–	> 9.09 µM	–	> 10 µM	–	6.91 µM	–	4.47 µM	–	3.04 µM	–	9.55 µM	–	6.4 µM	–	3.84 µM
Cn1cnc([N+](=O)[O-])c1S(=O)(=O)Oc1ccccc1	5.85 µM	19.1 µM	3.14 µM	8.21 µM	11.1 µM	27.3 µM	3.65 µM	18.9 µM	22.6 µM	> 92.7 µM	29.9 µM	> 73 µM	17.3 µM	34.2 µM	97.5 µM	> 100 µM	23.5 µM	> 66.3 µM	1.68 µM	3.47 µM
Nc1nccc2c1ccn2-c1ccc(NC(=O)c2ccc(N3CCOCC3)c(C(F)(F)F)c2)cc1	0.418 µM	3.84 µM	0.322 µM	1.26 µM	0.622 µM	2.54 µM	0.318 µM	–	3.47 µM	19.6 µM	0.204 µM	0.515 µM	0.944 µM	2.28 µM	2.44 µM	23.5 µM	0.341 µM	5.19 µM	0.573 µM	4.15 µM
Nc1c(C(=O)Nc2cccc(Br)c2)sc2nc3c(cc12)C(=O)CCC3	0.64 µM	86.2 µM	0.37 µM	> 100 µM	0.568 µM	> 100 µM	18.5 µM	> 100 µM	33.7 µM	> 100 µM	0.455 µM	> 59.7 µM	0.4 µM	> 100 µM	0.501 µM	> 100 µM	0.517 µM	> 100 µM	3.07 µM	> 100 µM
O=C1[C@@H]2C3c4ccccc4C([C@@H]2C(=O)N1c1ccccc1)S3(=O)=O	–	> 100 µM	–	> 100 µM	–	> 100 µM	–	> 100 µM	–	> 100 µM	–	> 100 µM	–	> 100 µM	–	> 100 µM	–	> 100 µM	–	> 100 µM
CC(=O)O[C@H]1CCC2[C@@H]3CCC4=C(O)c5nocc5C[C@]4(C)C3CC[C@@]21C (stereo not given in full)	–	> 100 µM	–	> 100 µM	–	> 100 µM	–	> 100 µM	–	> 100 µM	–	> 100 µM	–	> 100 µM	–	> 100 µM	–	> 100 µM	–	> 100 µM
Cc1ccc(NC(=O)C2C(=O)N(c3ccc(C)c(C)c3)C(=O)C2N=N)cc1C (stereo not given)	–	> 100 µM	–	> 100 µM	–	> 100 µM	–	> 100 µM	–	> 100 µM	–	> 100 µM	–	> 100 µM	–	> 100 µM	–	> 100 µM	–	> 100 µM
COc1cc(C2c3cc4c(cc3C(O)C(CO)C2CO)OCO4)cc(OC)c1OC (stereo not given)	> 100 µM	> 100 µM	0.422 µM	–	0.706 µM	> 100 µM	1.59 µM	> 100 µM	2.76 µM	> 100 µM	0.219 µM	0.468 µM	0.636 µM	> 72 µM	1.57 µM	> 100 µM	0.587 µM	> 100 µM	–	> 100 µM
C=CCCCCCCCCCCC1(O)C=CC2=[N+](CCCCCN=C(N)N)CCCN21 (stereo not given)	–	0.759 µM	3.87 µM	22.7 µM	22.8 µM	> 51.5 µM	4.4 µM	20.4 µM	7.24 µM	26.1 µM	7.2 µM	24.9 µM	9.93 µM	25.1 µM	19.1 µM	38.5 µM	1.49 µM	13.9 µM	17 µM	36.5 µM
CCCCCCC[CH2][Sn]1([CH2]CCCCCCC)[O]C(=O)c2cccnc2[S]1	> 100 µM	> 100 µM	> 100 µM	> 100 µM	> 100 µM	> 100 µM	> 100 µM	> 100 µM	> 100 µM	> 100 µM	> 100 µM	> 100 µM	> 100 µM	> 100 µM	> 100 µM	> 100 µM	> 100 µM	> 100 µM	> 100 µM	> 100 µM
CC1(C)OCCn2c1nc1c(N3CCOCC3)nc(-c3cnc(N)nc3)nc12	0.141 µM	1.84 µM	0.23 µM	> 100 µM	0.316 µM	> 100 µM	0.33 µM	> 100 µM	0.404 µM	11.2 µM	0.213 µM	1.92 µM	0.346 µM	2.9 µM	0.102 µM	0.495 µM	0.673 µM	34 µM	0.0912 µM	1.11 µM
COC12C=C/C(=C(/C(=O)OCc3ccncc3)C(=O)CCCCCCCCC3(OC)C=C/C(=C(/C(=O)OCc4ccncc4)C(=O)CCCCCCCC1)O3)O2	1.23 µM	2.36 µM	0.721 µM	4.79 µM	0.17 µM	0.574 µM	0.172 µM	1.85 µM	0.219 µM	50 µM	0.899 µM	3.29 µM	0.247 µM	0.867 µM	2.03 µM	9.02 µM	0.5 µM	1.46 µM	0.641 µM	1.4 µM
Cn1cc(C2=C(c3cn(C)c4cc(C(N)=O)ccc34)C(=O)NC2=O)c2ccccc21	2.15 µM	24.5 µM	0.924 µM	> 13.5 µM	1.08 µM	> 25 µM	1.83 µM	> 20.9 µM	1.67 µM	> 25 µM	0.987 µM	> 25 µM	0.751 µM	3.39 µM	1.44 µM	> 22.2 µM	1.04 µM	> 25 µM	1.81 µM	> 20.1 µM
CCN(CC)CCOc1ccc(/C=C2\CC3C4CC=C5C[C@@H](O)CC[C@]5(C)C4CC[C@]3(C)C2=O)cc1OC (stereo not given in full)	1.45 µM	32.2 µM	2.29 µM	> 100 µM	2.06 µM	4.34 µM	2.04 µM	> 23.5 µM	1.92 µM	3.74 µM	2.6 µM	10.3 µM	6.58 µM	22.6 µM	8.64 µM	> 58.3 µM	2.41 µM	6.37 µM	–	> 100 µM
Cc1ccc(-c2nc3ccc([N+](=O)[O-])cc3[nH]2)cc1	–	> 100 µM	–	> 100 µM	–	> 100 µM	–	> 100 µM	–	> 100 µM	–	> 100 µM	–	> 100 µM	–	> 100 µM	–	> 100 µM	–	> 100 µM
